This note sets out measurements from ChEMBL document CHEMBL1201862, “PubChem BioAssay data set” (2004).

The source made the active and inactive calls.

For experiment [1], the target named is Photoreceptor-specific nuclear receptor (Homo sapiens, UniProt Q9Y5X4). The experiment is classed as functional, cell-based.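 Also: CHO-S cells with Gal4-NCOR and VP16-NR2E3 two-hybrid luciferase reporter.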
The target in experiment [2] is T1, Probable nicotinate-nucleotide adenylyltransferase (Staphylococcus aureus (strain N315), UniProt P65502). In kind it is functional, Staphylococcus aureus subsp. aureus N315.
The target in experiment [3] is T1, Probable nicotinate-nucleotide adenylyltransferase. The experiment is classed as functional, Staphylococcus aureus subsp. aureus N315. The settings on record: read-out: IC50_Mean.
The next experiment addresses Protein Wnt-3a (Mus musculus, UniProt P27467). The experiment is described as follows: Wnt3a-driven reporter signaling inhibition, dose response, selectivity assay for Gli-SUFU antagonist project, Wnt-LIGHT cells, luminescence (AID 651570).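 Also: Wnt-LIGHT reporter cells stimulated with conditioned medium from Wnt3a-producing cells.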 The experiment is classed as functional. The settings on record: read-out: IC50_Mean.

T1 sequence (P65502 whole entry): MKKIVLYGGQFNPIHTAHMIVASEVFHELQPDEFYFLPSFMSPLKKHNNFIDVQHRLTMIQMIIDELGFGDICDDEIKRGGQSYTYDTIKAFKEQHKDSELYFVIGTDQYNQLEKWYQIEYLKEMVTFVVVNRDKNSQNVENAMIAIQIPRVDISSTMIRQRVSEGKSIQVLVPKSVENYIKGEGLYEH
Chain of Photoreceptor-specific nuclear receptor (Q9Y5X4 whole entry, the tested form may be a part): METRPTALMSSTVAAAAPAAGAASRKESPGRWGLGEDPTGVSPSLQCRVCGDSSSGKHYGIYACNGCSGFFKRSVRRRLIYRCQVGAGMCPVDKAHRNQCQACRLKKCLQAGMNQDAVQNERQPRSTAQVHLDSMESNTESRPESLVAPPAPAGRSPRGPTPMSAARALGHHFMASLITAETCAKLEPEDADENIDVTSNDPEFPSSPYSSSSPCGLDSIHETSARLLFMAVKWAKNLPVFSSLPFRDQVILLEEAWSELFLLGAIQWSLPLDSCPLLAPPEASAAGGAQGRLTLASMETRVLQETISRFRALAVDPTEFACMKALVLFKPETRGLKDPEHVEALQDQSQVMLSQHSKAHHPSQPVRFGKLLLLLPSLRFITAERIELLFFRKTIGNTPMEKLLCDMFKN
Chain of Protein Wnt-3a (P27467 whole entry): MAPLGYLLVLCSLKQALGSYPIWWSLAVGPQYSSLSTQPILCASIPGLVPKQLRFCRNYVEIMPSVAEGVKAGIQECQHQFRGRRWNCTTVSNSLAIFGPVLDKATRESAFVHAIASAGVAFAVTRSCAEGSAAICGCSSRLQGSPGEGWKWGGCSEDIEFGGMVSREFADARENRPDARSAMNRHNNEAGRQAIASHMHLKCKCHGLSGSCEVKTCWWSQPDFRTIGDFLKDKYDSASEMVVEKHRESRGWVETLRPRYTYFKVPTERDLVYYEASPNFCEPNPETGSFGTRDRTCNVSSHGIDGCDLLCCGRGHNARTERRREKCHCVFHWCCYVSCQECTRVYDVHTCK

On to `COc1ccc(C)cc1NC(=O)c1nnn(Cc2cccc(C(F)(F)F)c2)c1N`, for which, in experiment [1], the IC50 is 39.8 µM (inactive). `O=C(CSc1nnc(SCc2ccccc2)s1)N/N=C/C=C/c1ccco1`: the IC50 in experiment [2] is 12 µM (active); in experiment [3], 27.6 µM (active).

Turning to `CCC(C)n1c(=O)c(C(=O)Nc2ccccc2S(N)(=O)=O)c(O)c2ccccc21` (stereo unspecified), the figures for the IC50 in experiment [2] and in experiment [3] were 5.92 µM (active) and 41.1 µM (active), respectively. Turning to `CC1CCC(NC(=O)c2cccc(S(=O)(=O)N3CCN(c4ccccc4)CC3)c2)CC1` (stereo unspecified), on Protein Wnt-3a, the IC50 is 28.3 µM (inactive).
